Source: ChEMBL document CHEMBL4342407, “Thieno[2,3-d]pyrimidine as a promising scaffold in medicinal chemistry: Recent advances” (Bioorg Med Chem, 2019)

Assays:
Staphylococcus aureus [1] = experiment: Antibacterial activity against Staphylococcus aureus assessed as zone inhibition at 100 ug/ml; assay type: functional; conditions: read-out: IZ
Klebsiella pneumoniae = experiment: Antibacterial activity against Klebsiella pneumoniae assessed as zone inhibition at 100 ug/ml; assay type: functional; conditions: read-out: IZ
Bacillus subtilis [2] = experiment: Antibacterial activity against Bacillus subtilis assessed as zone inhibition at 100 ug/ml; assay type: functional; conditions: read-out: IZ
Escherichia coli [3] = experiment: Antibacterial activity against Escherichia coli assessed as zone inhibition at 100 ug/ml; assay type: functional; conditions: read-out: IZ
Rattus norvegicus [4] = experiment: Antiinflammatory activity in po dosed Wistar rat assessed as reduction in carrageenan-induced paw edema pretreated for 1 hr followed by carrageenan challenge and measured over 2 to 4 hrs post carrageenan challenge by plethysmography; assay type: functional
Mus musculus = experiment: Antiinflammatory activity in Swiss mouse assessed as inhibition of TPA-induced ear edema at 1 mg/ear applied topically and measured 4 hrs post-TPA challenge relative to control; assay type: functional
Rattus norvegicus [5] = experiment: Antiinflammatory activity in Wistar rat model of Freund's adjuvant-induced arthritis assessed as inhibition of arthritis by measuring reduction in paw volume at 75 mg/kg, po administered once daily for 8 days starting from day 7 post Freund's adjuvant treatment and measured after 18 days by mercury plethysmography relative to control; assay type: functional
Rattus norvegicus [6] = experiment: Antiinflammatory activity in Wistar rat assessed as inhibition of cotton pellet-induced granuloma at 75 mg/kg, po administered daily for 7 days and measured on day 8 relative to control; assay type: functional
Escherichia coli [7] = experiment: Antibacterial activity against Escherichia coli assessed as zone inhibition at 500 ug/ml by cup plate agar diffusion method; assay type: functional; conditions: read-out: IZ
Pseudomonas aeruginosa = experiment: Antibacterial activity against Pseudomonas aeruginosa assessed as zone inhibition at 500 ug/ml by cup plate agar diffusion method; assay type: functional; conditions: read-out: IZ
Bacillus subtilis [8] = experiment: Antibacterial activity against Bacillus subtilis assessed as zone inhibition at 500 ug/ml by cup plate agar diffusion method; assay type: functional; conditions: read-out: IZ
Staphylococcus aureus [9] = experiment: Antibacterial activity against Staphylococcus aureus assessed as zone inhibition at 500 ug/ml by cup plate agar diffusion method; assay type: functional; conditions: read-out: IZ
MGC-803 = experiment: Antiproliferative activity against human MGC803 at 50 ug/ml after 48 hrs by MTT assay; assay type: functional; conditions: MGC-803, 48 h
ECa-109 cell line = experiment: Antiproliferative activity against human EC109 at 50 ug/ml after 48 hrs by MTT assay; assay type: functional; conditions: ECa-109, 48 h
HepG2 [10] = experiment: Antiproliferative activity against human HepG2 at 50 ug/ml after 48 hrs by MTT assay; assay type: functional; conditions: HepG2, 48 h
Candida albicans = experiment: […] activity against Candida albicans assessed as zone inhibition at 500 ug/ml by cup plate agar diffusion method; assay type: functional; conditions: read-out: IZ
HeLa = experiment: Antiproliferative activity against human HeLa after 24 hrs by MTT assay; assay type: functional, cell-based
MCF7 [11] = experiment: Antiproliferative activity against human MCF7 after 24 hrs by MTT assay; assay type: functional, cell-based; conditions: MCF7, 24 h
HepG2 [12] = experiment: Antiproliferative activity against human HepG2 cells by MTT assay; assay type: functional, cell-based
MCF7 [13] = experiment: Antiproliferative activity against human MCF7 by MTT assay; assay type: functional, cell-based
HepG2 [14] = experiment: Antiproliferative activity against human HepG2 after 24 hrs by MTT assay; assay type: functional, cell-based; conditions: HepG2, 24 h
HEp-2 = experiment: Antiproliferative activity against human Hep2 after 24 hrs by MTT assay; assay type: functional, cell-based; conditions: HEp-2, 24 h
PC-3 = experiment: Antiproliferative activity against human PC3 after 24 hrs by MTT assay; assay type: functional, cell-based; conditions: PC-3, 24 h
Rattus norvegicus [15] = experiment: Anti-ulcer activity in Wistar albino rat assessed as reduction in pylorus ligation induced ulcer at 250 mg/kg, ip pretreated for 1 hr followed by pylorus ligation and measured at 4 hrs post ligation; assay type: functional
[16] = Ulcerogenic activity in Wistar albino rat assessed as ulcer index at 250 mg/kg, ip pretreated for 1 hr followed by pylorus ligation and measured at 4 hrs post ligation; assay type: toxicity, organism-based; conditions: in vivo
Rattus norvegicus [17] = experiment: Antiinflammatory activity in Sprague-Dawley rat assessed as protection against carrageenan-induced edema at 40 mg/kg, po pretreated for 1 hr followed by carrageenan challenge and measured after 3 hrs by mercury plethysmometer relative to control; assay type: functional

Structure (SMILES): FC(F)(F)c1ccc(C2=NOC(c3cc4cncnc4s3)C2)cc1 (centres undefined)
- zone of inhibition at 100 µg/mL (Staphylococcus aureus [1]): 15 mm
- zone of inhibition at 100 µg/mL (Klebsiella pneumoniae): 16.5 mm
- zone of inhibition at 100 µg/mL (Bacillus subtilis [2]): 13 mm
- zone of inhibition at 100 µg/mL (Escherichia coli [3]): 17 mm

Structure (SMILES): CSC1=[N+](N)C(c2ccccc2)c2c(sc3c2CCCC3)N1.[I-] (centres undefined)
- ED50 (Rattus norvegicus [4]): 72.5 mg/kg
- inhibition (INH) (Mus musculus): 20.8%
- inhibition in vivo at 75 mg/kg (Rattus norvegicus [5]): 10%
- inhibition in vivo at 75 mg/kg (Rattus norvegicus [6]): 29.9%

Structure (SMILES): CC1(C)S[C@@H]2[C@H](NC(=O)[C@H](N)c3ccccc3)C(=O)N2[C@H]1C(=O)O [AMPICILLIN]
- zone of inhibition at 500 µg/mL (Escherichia coli [7]): 25 mm
- zone of inhibition at 500 µg/mL (Pseudomonas aeruginosa): 21 mm
- zone of inhibition at 500 µg/mL (Bacillus subtilis [8]): 24 mm
- zone of inhibition at 500 µg/mL (Staphylococcus aureus [9]): 22 mm

Structure (SMILES): CCOP(=O)(OCC)C(Nn1c(C)nc2sc(CC)cc2c1=O)c1ccccc1 (centres undefined)
- inhibition at 50 µg/mL (MGC-803): 50.3%
- inhibition at 50 µg/mL (ECa-109 cell line): 66.3%
- inhibition at 50 µg/mL (HepG2 [10]): 66%

Structure (SMILES): FC(F)(F)c1ccc(C2=Nc3ccccc3SC(c3cc4cncnc4s3)C2)cc1 (centres undefined)
- zone of inhibition at 500 µg/mL (Candida albicans): 16 mm
- zone of inhibition at 500 µg/mL (Escherichia coli [7]): 16.2 mm
- zone of inhibition at 500 µg/mL (Pseudomonas aeruginosa): 16.1 mm
- zone of inhibition at 500 µg/mL (Bacillus subtilis [8]): 18.8 mm
- zone of inhibition at 500 µg/mL (Staphylococcus aureus [9]): 17 mm

Structure (SMILES): Nc1c(C(=O)Nc2ccc(Cl)cc2)sc2nc(N3CCOCC3)nc(-c3ccccc3)c12
- IC50 (HeLa): 50 µM
- IC50 (MCF7 [11]): 18.9 µM

Structure (SMILES): COc1ccccc1CNc1nc(C(F)(F)F)nc2sc3c(c12)CCC3
- IC50 (HepG2 [12]): > 100 µM
- IC50 (MCF7 [13]): > 100 µM

Structure (SMILES): CC(=O)O[C@H]1C(=O)[C@@]2(C)[C@H]([C@H](OC(=O)c3ccccc3)[C@]3(O)C[C@H](OC(=O)[C@H](O)[C@@H](NC(=O)c4ccccc4)c4ccccc4)C(C)=C1C3(C)C)[C@]1(OC(C)=O)CO[C@@H]1C[C@@H]2O [PACLITAXEL]
- IC50 (HeLa): 45.8 µM
- IC50 (MCF7 [11]): 40.4 µM

Structure (SMILES): CN1C(C(=O)Nc2ccccn2)=C(O)c2ccccc2S1(=O)=O [PIROXICAM]
- ED50 (Rattus norvegicus [4]): 7.8 mg/kg
- inhibition (INH) (Mus musculus): 12.2%
- inhibition in vivo at 75 mg/kg (Rattus norvegicus [5]): 51.6%
- inhibition in vivo at 75 mg/kg (Rattus norvegicus [6]): 67.9%

Structure (SMILES): Cc1c(C(=O)/C=C/c2cc(Br)cs2)sc2nc(S)n(-c3ccccc3)c(=O)c12
- IC50 (HepG2 [14]): 30.1 µM
- IC50 (HeLa): 17.8 µM
- IC50 (HEp-2): 31.3 µM
- IC50 (PC-3): 27.7 µM
- IC50 (MCF7 [11]): 25.8 µM

Structure (SMILES): CC(=C(C#N)C(=O)NN)[C@H]1CC[C@H]2[C@@H]3CC=C4CC(O)CC[C@]4(C)[C@H]3CC[C@]12C (some centres undefined)
- inhibition in vivo at 250 mg/kg (Rattus norvegicus [15]): 41.4%
- UI [16]: 2.11
- Activity (Rattus norvegicus [17]): 90%

Structure (SMILES): O=C(NN1C(S)=Nc2sc3c(c2C1c1ccccc1)CCCC3)c1ccccc1 (centres undefined)
- ED50 (Rattus norvegicus [4]): 62.7 mg/kg
- inhibition (INH) (Mus musculus): 57.9%
- inhibition in vivo at 75 mg/kg (Rattus norvegicus [5]): 25.6%
- inhibition in vivo at 75 mg/kg (Rattus norvegicus [6]): 41.8%

Structure (SMILES): C[C@]12CC[C@H]3[C@@H](CC=C4CC(O)CC[C@@]43C)[C@@H]1CC[C@@H]2c1csc(N)c1C(=O)NN (some centres undefined)
- inhibition in vivo at 250 mg/kg (Rattus norvegicus [15]): 82.7%
- UI [16]: 0.62
- Activity (Rattus norvegicus [17]): 87%

Structure (SMILES): C[C@]12CC[C@H]3[C@@H](CC=C4CC(O)CC[C@@]43C)[C@@H]1CC[C@@H]2C1=CSC2N=CN(N)C(=O)C12 (some centres undefined)
- inhibition in vivo at 250 mg/kg (Rattus norvegicus [15]): 71.7%
- UI [16]: 1.02
- Activity (Rattus norvegicus [17]): 24%

Structure (SMILES): FC(F)(F)c1nc(NCc2ccccc2)c2c3c(sc2n1)CCC3
- IC50 (HepG2 [12]): 13.5 µM
- IC50 (MCF7 [13]): 11.8 µM

Structure (SMILES): Nc1c(C(=O)Nc2ccccc2)sc2nc(N3CCOCC3)nc(-c3ccccc3)c12
- IC50 (HeLa): 40.7 µM
- IC50 (MCF7 [11]): 52.6 µM

Structure (SMILES): Cc1c(C(=O)/C=C/c2cccs2)sc2nc(S)n(-c3ccccc3)c(=O)c12
- IC50 (HepG2 [14]): 26.4 µM
- IC50 (HeLa): 15.4 µM
- IC50 (HEp-2): 25.7 µM
- IC50 (PC-3): 18.4 µM
- IC50 (MCF7 [11]): 24 µM

Structure (SMILES): CCOP(=O)(OCC)C(Nn1c(C)nc2sc(CC)cc2c1=O)c1ccc([N+](=O)[O-])cc1 (centres undefined)
- inhibition at 50 µg/mL (MGC-803): 59.8%
- inhibition at 50 µg/mL (ECa-109 cell line): 54%
- inhibition at 50 µg/mL (HepG2 [10]): 61.1%

Structure (SMILES): CCc1cc2c(=O)n(NC(c3cccc([N+](=O)[O-])c3)P(=O)(OC(C)C)OC(C)C)c(C)nc2s1 (centres undefined)
- inhibition at 50 µg/mL (MGC-803): 63.6%
- inhibition at 50 µg/mL (ECa-109 cell line): 45.3%
- inhibition at 50 µg/mL (HepG2 [10]): 90.8%

Structure (SMILES): C[C@]12CC[C@H]3[C@@H](CC=C4CC(O)CC[C@@]43C)[C@@H]1CC[C@@H]2c1csc(N)c1C(=O)NNC(=S)Nc1ccccc1 (some centres undefined)
- inhibition in vivo at 250 mg/kg (Rattus norvegicus [15]): 41.4%
- UI [16]: 2.11
- Activity (Rattus norvegicus [17]): 81%

Structure (SMILES): CCc1cc2c(=O)n(/N=C/c3ccccc3)c(C)nc2s1
- inhibition at 50 µg/mL (MGC-803): 74.6%
- inhibition at 50 µg/mL (ECa-109 cell line): 51.4%
- inhibition at 50 µg/mL (HepG2 [10]): 57%
